In patent US20250074891A1 (Anaxis Pharma Pty Ltd., priority 2021, published 2025):
pKd: −log10 of the molar value.

What was measured:
Conditions in all cases: Table 35
[1] = biological target: RIP3 (Homo sapiens (Human), UniProt Q9Y572); test: KINOMEscan binding assay, RIP3
Protocol: (§1) Kinase assays. For most assays, kinase-tagged T7 phage strains were grown in parallel in 24-well blocks in an E. coli host derived from the BL21 strain. E. coli were grown to log-phase and infected with T7 phage from a frozen stock (multiplicity of infection=0.4) and incubated with shaking at 32° C. until lysis (90-150 minutes).
(§2) The Hill Slope was set to −1.

[2] = biological target: MLKL (full length) (Homo sapiens (Human), UniProt Q8NB16); test: KINOMEscan binding assay, MLKL (full length)
Protocol: as §1, §2

[3] = biological target: RIP1 (Homo sapiens (Human), UniProt Q13546); test: KINOMEscan binding assay, RIP1
Sequence of RIP1 (Q13546 whole entry): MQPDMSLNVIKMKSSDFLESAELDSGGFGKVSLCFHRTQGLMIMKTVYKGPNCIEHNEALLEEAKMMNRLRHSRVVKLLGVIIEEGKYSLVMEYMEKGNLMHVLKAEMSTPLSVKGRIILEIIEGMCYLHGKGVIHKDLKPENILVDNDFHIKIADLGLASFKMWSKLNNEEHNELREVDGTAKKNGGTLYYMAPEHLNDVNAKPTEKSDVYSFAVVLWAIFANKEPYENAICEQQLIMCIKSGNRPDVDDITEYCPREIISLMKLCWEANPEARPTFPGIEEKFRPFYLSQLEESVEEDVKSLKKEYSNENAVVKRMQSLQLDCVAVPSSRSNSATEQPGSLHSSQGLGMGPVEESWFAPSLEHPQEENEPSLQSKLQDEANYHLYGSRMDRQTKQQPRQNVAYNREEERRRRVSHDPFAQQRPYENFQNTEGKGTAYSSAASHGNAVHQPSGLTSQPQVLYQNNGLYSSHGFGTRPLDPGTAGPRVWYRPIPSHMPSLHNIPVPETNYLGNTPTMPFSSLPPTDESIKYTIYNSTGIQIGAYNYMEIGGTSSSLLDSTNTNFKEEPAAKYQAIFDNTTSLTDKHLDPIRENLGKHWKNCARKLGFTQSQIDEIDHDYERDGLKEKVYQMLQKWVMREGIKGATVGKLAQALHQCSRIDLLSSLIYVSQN

Sequence of RIP3 (Q9Y572 whole entry): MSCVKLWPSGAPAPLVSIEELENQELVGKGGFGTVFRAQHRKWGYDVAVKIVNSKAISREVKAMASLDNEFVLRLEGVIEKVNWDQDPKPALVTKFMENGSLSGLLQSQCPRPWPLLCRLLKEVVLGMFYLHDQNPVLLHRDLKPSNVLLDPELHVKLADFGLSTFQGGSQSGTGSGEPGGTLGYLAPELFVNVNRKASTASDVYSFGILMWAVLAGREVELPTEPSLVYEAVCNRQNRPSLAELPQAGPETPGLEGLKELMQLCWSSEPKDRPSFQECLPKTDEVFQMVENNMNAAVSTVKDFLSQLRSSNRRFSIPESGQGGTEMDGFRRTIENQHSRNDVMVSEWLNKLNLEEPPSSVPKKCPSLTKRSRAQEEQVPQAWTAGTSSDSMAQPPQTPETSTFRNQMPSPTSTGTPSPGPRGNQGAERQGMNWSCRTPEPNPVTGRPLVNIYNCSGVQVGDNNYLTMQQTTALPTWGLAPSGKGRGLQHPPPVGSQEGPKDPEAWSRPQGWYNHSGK
Sequence of MLKL (full length) (Q8NB16 whole entry): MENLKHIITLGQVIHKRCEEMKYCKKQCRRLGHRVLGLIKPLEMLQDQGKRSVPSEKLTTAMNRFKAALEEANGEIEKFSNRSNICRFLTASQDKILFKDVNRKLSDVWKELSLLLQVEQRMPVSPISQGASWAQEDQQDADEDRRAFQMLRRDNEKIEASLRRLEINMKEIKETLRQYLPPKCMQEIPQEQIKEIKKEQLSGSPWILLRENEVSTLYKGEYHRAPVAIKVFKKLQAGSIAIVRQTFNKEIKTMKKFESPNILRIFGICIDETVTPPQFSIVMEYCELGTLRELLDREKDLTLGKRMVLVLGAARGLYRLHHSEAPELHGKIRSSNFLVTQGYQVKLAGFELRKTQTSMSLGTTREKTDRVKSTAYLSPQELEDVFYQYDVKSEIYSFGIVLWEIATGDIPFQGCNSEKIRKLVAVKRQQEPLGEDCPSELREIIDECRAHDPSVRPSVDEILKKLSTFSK

| SMILES | pKd [1] | pKd [2] | pKd [3] |
| --- | --- | --- | --- |
| C[C@H](Oc1cc(-c2n[nH]c(Nc3cccc(C(F)(F)F)n3)c2C(N)=O)ccc1NS(=O)(=O)CC(F)(F)F)c1ccc(F)cc1 [Compound 249, 3-{3-[(1S)-1-(4-fluorophenyl)ethoxy]-4-(2,2,2-trifluoroethane-sulfonamido)phenyl}-5-{[6-(trifluoromethyl)pyridin-2-yl]amino}-1H-pyrazole-4-carboxamide] | < 4.52 | > 8.00 | < 4.52 |
| CCS(=O)(=O)Nc1ccc(-c2n[nH]c(Nc3cnccn3)c2C(N)=O)cc1O[C@@H](C)c1ccc(F)cc1 [Compound 199, (S)-3-(4-(ethylsulfonamido)-3-(1-(4-fluorophenyl)ethoxy)phenyl)-5-(pyrazin-2-ylamino)-1H-pyrazole-4-carboxamide] | < 4.52 | > 8.00 | < 4.52 |
| CCS(=O)(=O)Nc1ccc(-c2n[nH]c(Nc3cnccn3)c2C(N)=O)cc1OC1CCCc2ccccc21 (stereo not drawn) [Compound 232, 3-[4-ethanesulfonamido-3-(1,2,3,4-tetrahydronaphthalen-1-yloxy)phenyl]-5-[(pyrazin-2-yl)amino]-1H-pyrazole-4-carboxamide] | < 4.52 | > 8.00 | < 4.52 |
| C[C@@H](Oc1cc(-c2n[nH]c(Nc3cnccn3)c2C(N)=O)ccc1NS(=O)(=O)C(F)F)c1ccc(F)cc1 [Compound 271, (R)-3-(4-((difluoro-methyl)sulfon-amido)-3-(1-(4-fluorophenyl)ethoxy)phenyl)-5-(pyrazin-2-ylamino)-1H-pyrazole-4-carboxamide] | < 4.52 | > 8.00 | < 4.52 |
| C[C@H](Oc1cc(-c2n[nH]c(Nc3cc(C4(C)COC4)on3)c2C(N)=O)ccc1NS(=O)(=O)C(F)F)c1ccc(F)cc1 [Compound 292, (S)-3-(4-((difluoromethyl)sulfonamido)-3-(1-(4-fluorophenyl)ethoxy)phenyl)-5-((5-(3-methyloxetan-3-yl)isoxazol-3-yl)amino)-1H-pyrazole-4-carboxamide] | < 4.52 | > 8.00 | < 4.52 |
| N#CCS(=O)(=O)Nc1ccc(-c2n[nH]c(Nc3cccc(C(F)(F)F)n3)c2C(N)=O)cc1 [Compound 29, 3-(4-((cyanomethyl)sulfonamido)phenyl)-5-((6-(trifluoromethyl)pyridin-2-yl)amino)-1H-pyrazole-4-carboxamide] | < 4.52 | > 8.00 | < 4.52 |
| CCS(=O)(=O)Nc1ccc(-c2n[nH]c(Nc3cnccn3)c2C(N)=O)cc1OCc1ccncc1 [Compound 28, 3-(4-(ethylsulfonamido)-3-(226yridine-4-ylmethoxy)phenyl)-5-(pyrazin-2-ylamino)-1H-pyrazole-4-carboxamide] | < 4.52 | > 8.00 | < 4.52 |
| CCS(=O)(=O)Nc1ccc(-c2n[nH]c(Nc3cnccn3)c2C(N)=O)cc1O[C@H](C)c1ccc(F)cc1 [Compound 193, (R)-3-(4-(ethylsulfonamido)-3-(1-(4-fluorophenyl)ethoxy)phenyl)-5-(pyrazin-2-ylamino)-1H-pyrazole-4-carboxamide] | < 4.52 | > 8.00 | < 4.52 |
| NC(=O)c1c(-c2ccc(NS(=O)(=O)C(F)(F)F)cc2)n[nH]c1Nc1cccc(C(F)(F)F)n1 [Compound 205] | < 4.52 | > 8.00 | < 4.52 |
| C[C@H](Oc1cc(-c2n[nH]c(Nc3cnccn3)c2C(N)=O)ccc1NS(=O)(=O)CC(F)(F)F)c1cccc(Cl)c1 [Compound 256, 3-{3-[(1S)-1-(3-chlorophenyl)ethoxy]-4-(2,2,2-trifluoroethane-sulfonamido)phenyl}-5-[(pyrazin-2-yl)amino]-1H-pyrazole-4-carboxamide] | < 4.52 | > 8.00 | < 4.52 |
| COC[C@@H](Oc1cc(-c2n[nH]c(Nc3cc(C)on3)c2C(N)=O)ccc1NS(=O)(=O)C(F)F)c1ccc(F)cc1 [Compound 300, (S)-3-(4-((difluoromethyl)sulfonamido)-3-(1-(4-fluorophenyl)-2-methoxyethoxy)phenyl)-5-((5-methylisoxazol-3-yl)amino)-1H-pyrazole-4-carboxamide] | < 4.52 | > 8.00 | < 4.52 |
| CCS(=O)(=O)Nc1ccc(-c2n[nH]c(Nc3ccnc(OC)n3)c2C(N)=O)cc1 [Compound 123, 3-(4-(ethylsulfonamido)phenyl)-5-((2-methoxypyrimidin-4-yl)amino)-1H-pyrazole-4-carboxamide] | < 4.52 | > 8.00 | < 4.52 |
| C[C@H](Oc1cc(-c2n[nH]c(Nc3cc4n(n3)CCOC4)c2C(N)=O)ccc1NS(=O)(=O)C(F)F)c1ccc(F)cc1 [Compound 308, (S)-3-(4-((difluoromethyl)sulfonamido)-3-(1-(4-fluorophenyl)ethoxy)phenyl)-5-((6,7-dihydro-4H-pyrazolo[5,1-c][1,4]oxazin-2-yl)amino)-1H-pyrazole-4-carboxamide] | < 4.52 | > 8.00 | < 4.52 |
| CCS(=O)(=O)Nc1ccc(-c2n[nH]c(Nc3ccc(C#N)cc3)c2C(N)=O)cc1 [Compound 102, 5-((4-cyanophenyl)amino)-3-(4-(ethylsulfonamido)phenyl)-1H-pyrazole-4-carboxamide] | < 4.52 | > 8.00 | < 4.52 |
| NC(=O)c1c(-c2ccc(NS(=O)(=O)CC(F)(F)F)c(OCc3ccc(F)c(Cl)c3)c2)n[nH]c1Nc1cnccn1 [Compound 225, 3-{3-[(3-chloro-4-fluorophenyl)methoxy]-4-(2,2,2-trifluoroethane-sulfonamido)phenyl}-5-[(pyrazin-2-yl)amino]-1H-pyrazole-4-carboxamide] | < 4.52 | > 8.00 | < 4.52 |

Results, then the compound that gave them:

| pKd [1] | pKd [2] | pKd [3] | SMILES |
| --- | --- | --- | --- |
| < 4.52 | > 8.00 | < 4.52 | NC(=O)c1c(-c2ccc(NS(=O)(=O)CC(F)(F)F)c(OCc3ccc(Cl)c(F)c3)c2)n[nH]c1Nc1cnccn1 [Compound 165, 3-(3-((4-chloro-3-fluorobenzyl)oxy)-4-((2,2,2-trifluoroethyl)sulfonamido)phenyl)-5-(pyrazin-2-ylamino)-1H-pyrazole-4-carboxamide] |
| < 4.52 | > 8.00 | < 4.52 | Cc1cnc(Nc2[nH]nc(-c3ccc(NS(=O)(=O)CC(F)(F)F)c(OCc4ccc(F)c(Cl)c4)c3)c2C(N)=O)cn1 [Compound 155, 3-(3-((3-chloro-4-fluorobenzyl)oxy)-4-((2,2,2-trifluoroethyl)sulfonamido)phenyl)-5-((5-methylpyrazin-2-yl)amino)-1H-pyrazole-4-carboxamide] |
| < 4.52 | > 8.00 | < 4.52 | C[C@H](Oc1cc(-c2n[nH]c(Nc3ncn(C)n3)c2C(N)=O)ccc1NS(=O)(=O)C(F)F)c1ccc(F)cc1 [Compound 283, (S)-3-(4-((difluoromethyl)sulfonamido)-3-(1-(4-fluorophenyl)ethoxy)phenyl)-5-((1-methyl-1H-1,2,4-triazol-3-yl)amino)-1H-pyrazole-4-carboxamide] |
| < 4.52 | > 8.00 | < 4.52 | C[C@H](Oc1cc(-c2n[nH]c(Nc3cc(C4(C(F)(F)F)CC4)on3)c2C(N)=O)ccc1NS(=O)(=O)C(F)F)c1ccc(F)cc1 [Compound 289, (S)-3-(4-((difluoromethyl)sulfonamido)-3-(1-(4-fluorophenyl)ethoxy)phenyl)-5-((5-(1-(trifluoromethyl)cyclopropyl)isoxazol-3-yl)amino)-1H-pyrazole-4-carboxamide] |
| < 4.52 | > 8.00 | < 4.52 | CCC(Oc1cc(-c2n[nH]c(Nc3cnccn3)c2C(N)=O)ccc1NS(=O)(=O)C(F)F)c1ccc(F)cc1 (racemic) [Compound 233, 3-[4-(difluoromethanesulfonamido)-3-[1-(4-fluorophenyl)propoxy]phenyl]-5-[(pyrazin-2-yl)amino]-1H-pyrazole-4-carboxamide] |
| < 4.52 | > 8.00 | < 4.52 | CCS(=O)(=O)Nc1ccc(-c2n[nH]c(Nc3cccc(OC)n3)c2C(N)=O)cc1OCc1ccc(F)cc1 [Compound 11, 3-(4-(ethylsulfonamido)-3-((4-fluorobenzyl)oxy)phenyl) 5-((6-methoxypyridin-2-yl)amino)-1H-pyrazole-4-carboxamide] |
| < 4.52 | 6.00 to 8.00 | < 4.52 | CC(C)(C)n1nc(-c2ccc(N)c(OCc3ccc(F)cc3)c2)c(C(N)=O)c1Nc1cccc(C(F)(F)F)n1 [Compound 5, 3-(4-amino-3-((4-fluorobenzyl)oxy)phenyl)-1-(tert-butyl)-5-((6-(trifluoromethyl)pyridin-2-yl)amino)-1H-pyrazole-4-carboxamide] |
| < 4.52 | > 8.00 | < 4.52 | C[C@H](Oc1cc(-c2n[nH]c(Nc3cccc(C(F)(F)F)n3)c2C(N)=O)ccc1NS(=O)(=O)C(F)F)c1ccc(F)cc1 [Compound 229, 3-[4-(difluoromethanesulfonamido)-3-[(1S)-1-(4-fluorophenyl)ethoxy]phenyl]-5-{[6-(trifluoromethyl)pyridin-2-yl]amino}-1H-pyrazole-4-carboxamide] |
| < 4.52 | > 8.00 | < 4.52 | CCS(=O)(=O)Nc1ccc(-c2n[nH]c(Nc3ccccn3)c2C(N)=O)cc1OCc1ccccc1 [Compound 20, 3-(3-(benzyloxy)-4-(ethylsulfon-amido)phenyl)-5-(pyridin-2-ylamino)-1H-pyrazole-4-carboxamide] |
| < 4.52 | > 8.00 | < 4.52 | CCS(=O)(=O)Nc1ccc(-c2n[nH]c(Nc3cnccn3)c2C(N)=O)cc1OCc1ccc(Cl)cn1 [Compound 242, 3-{3-[(5-chloropyridin-2-yl)methoxy]-4-ethanesulfonamidophenyl}-5-[(pyrazin-2-yl)amino]-1H-pyrazole-4-carboxamide] |
